Source: article PMC11436104 (Toxins, 2024)
Values joined by “and” are separate entries in the source; they are usually repeats but may differ in a detail not shown here. Equal values may be shown once. Read-outs that look alike come from different tables or passages of the source. *1 amine or outer side, *2 acyl side, *3 side chain or, on linkers, in order; H or OH if unused. Where a SMILES comes first, the peptide text is derived from it. Bridges are numbered along the chain shown (N, C = ends). [ ]: non-standard residue; d: D form. Adda = CO[C@@H](Cc1ccccc1)[C@@H](C)/C=C(C)/C=C/[C@H](N[*:1])[C@H](C)C(=O)[*:2]; dAsp(3S-Me) = C[C@H](C(=O)[*:3])[C@@H](N[*:1])C(=O)[*:2]; d(γGlu) = O=C(O)[C@@H](CCC(=O)[*:2])N[*:1]; hTyr = N[C@@H](CCc1ccc(O)cc1)C(=O)O; NMeA = CN[C@@H](C)C(=O)O; NMeDha = C=C(NC)C(=O)O; CO = O=C([*:1])[*:2]

Columns and labels:
[1] = target: T1, Ser/Thr protein phosphatase type-1 (PP1; α isoform catalytic subunit) (Oryctolagus cuniculus, UniProt P62139); assay: Colorimetric protein phosphatase inhibition assay, p-nitrophenyl phosphate substrate; assay type: biochemical, rabbit
T1 construct: purchased Sigma 539493; host or cells: Escherichia coli
Experimental: The inhibition of Ser/Thr protein phosphatases by the CCPs was measured using the colorimetric inhibition assay described by An and Carmichael and Gkelis et al., with some modifications. […] Enzymes, PP1 and PP2A, were diluted in reaction buffer #1 (50 mM Tris-HCl, 1.0 g/L bovine serum albumin, 1.0 mM MnCl2, 2.0 mM dithiothreitol, pH 7.4), and p-nitrophenyl phosphate was prepared in substrate buffer (0.1 M glycine, pH 10.4, 1 mM MgCl2, 1 mM ZnCl2). The assay was performed by the addition of each CCP (as a potential inhibitor; final concentrations, 0.1, 1, 10, and 100 µM) to the enzyme solution (i.e., PP1 and PP2A; final concentrations, 1 U/well and 0.01 U/well, respectively, where 1 U hydrolyzes 1 nmole of substrate per minute at pH 7.4 at 30 °C). After a few seconds of gentle shaking, the microplate was kept at room temperature for 5 min, followed by the addition of reaction buffer #2 (50 mM Tris-HCl, 0.5 g/L bovine serum albumin, 0.2 mM MnCl2, 20 mM MgCl2, and pH 8.1) for PP1, or reaction buffer #1 for PP2A. The reactions were started by the addition of p-nitrophenyl phosphate (final concentrations, 15 mM for PP1 and 10 mM for PP2A) and were carried out for 120 min at 37 °C. The hydrolysis of p-nitrophenyl phosphate to […] was recorded at 405 nm using a microplate reader (Tecan, Austria). The inhibition percentages (X) were calculated from the absorbances of the samples after incubation for 30 min, as according to Equation (1):X (%) = (APP − AS)/APP × 100,(1) where APP is the absorbance of the control sample (i.e., enzyme only), and AS is the absorbance of the test sample (i.e., enzyme with potential inhibitor). […] All measurements were repeated a minimum of three independent times, with five technical replicates per experiment. IC50 values are expressed as means ± SD.

[2] = system: NHAs (normal human astrocytes); assay: MTT metabolic activity / cell viability; assay type: cell-based
Experimental: Normal human astrocytes (NHAs; Lonza, Walkersville, MD, USA) were grown and maintained in monolayer cultures in Dulbecco’s modified Eagle’s medium (DMEM; Sigma) supplemented with 10% fetal bovine serum (Euroclone, Pero, MI, Italy), 1% penicillin/streptomycin (Euroclone), 2 mM L-glutamine (Euroclone), and 20 mM Hepes (Invitrogen, Carlsbad, CA, USA). The U87-MG human glioblastoma cells (U87-MG cells; American Type Culture Collection, Manassas, VA, USA) were grown and maintained in monolayer cultures in DMEM supplemented with 10% fetal bovine serum, 1% penicillin/streptomycin, 4 mM L-glutamine, and 1% non-essential amino acids (Sigma).
Cell viability was determined using the 3-(4,5-dimethylthiazolyl-2)-2,5-diphenyltetrazolium bromide (MTT) assay, as according to Mosmann. This assay measures the conversion of MTT to its insoluble formazan by the dehydrogenase enzymes of the intact mitochondria of living cells. […]; Nunclon; Nunc, Naperville, IL, USA) and incubated for 16 h at 37 °C for attachment. The cell-growth medium was then replaced by fresh medium containing 0, 0.1, 1, and 10 µM of each CCP and incubated for an additional 24 h. These experiments were performed without using dimethylsulphoxide to best retain the original permeability of the cell membranes. Each experiment included the negative control of cell-growth medium with no additions. Following incubation (CO2 incubator), 20 μL 5 mg/mL MTT was added to each well. The plates were incubated for another 3 h. […] The amount of formazan, which is proportional to the metabolic activity of cells, was quantified spectrophotometrically at 570 nm (reference filter wavelength, 690 nm) using a microplate reader (Synergy MX; BioTek, Winooski, VT, USA). The metabolic activity of the cells was determined by comparing the optical densities of the CCP-treated cells with those of the negative control. Five replicates per concentration and three independent experiments were performed. Student’s t-tests were used to analyze the differences between the treated and control cells using Prism 5 software (GraphPad, Inc., La Jolla, CA, USA), where p < 0.05 was considered to be statistically significant.

[3] = system: ACTB; assay: Gene expression by quantitative real-time PCR in U-87MG cells; assay type: cell-based, human; settings: 24 h, relative to non-treated control
Experimental: (§1) Cells were seeded onto 6-well plates, left to attach for 16 h, and treated with each non-hCCP separately (0.1–10 µM) and the hepatotoxic MC-LR (0.01–1 µM) for 24 h at 37 °C in the CO2 incubator. The total RNA from the cells (0.5–1.0 × 10^6 cells) was isolated using the TRIzol reagent (Invitrogen), and the cDNA was synthesized using 1 μg total RNA with cDNA high-capacity archive kits (Applied Biosystems, Foster City, CA, USA), according to the manufacturer’s protocol.
(§2) The expression levels of TUBA1A, ACTB, NES, and GFAP were quantified using quantitative real-time PCR (ABI 7900 HT Sequence Detection System; Applied Biosystems). TaqMan Universal PCR Master Mix and the following TaqMan Gene Expression Assays were used: TUBA1A: tubulin, alpha 1a, Hs00362387_m1; ACTB: actin, beta, Hs99999903_m1; NES, nestin, Hs00707120_s1; and GFAP, glial fibrillary acidic protein, and Hs00157674_m1 (all from Applied Biosystems). Amplification of a glyceraldehyde 3-phosphate dehydrogenase probe GAPDH (Human Endogenous Controls, Cat. # 4310884E; Applied Biosystems) was performed as an internal control. The conditions for the quantitative real-time PCR were as follows: 50 °C for 2 min, 95 °C for 10 min, 40 cycles of 95 °C for 15 s, and 60 °C for 1 min.
(§3) The data obtained from the TaqMan Gene Expression Assays were analyzed using the ΔΔCt algorithm. Two replicates per concentration and three independent experiments were performed. The statistical significance between the controls and the treated groups was determined using two-tailed Student’s t-tests, where p < 0.05 was statistically significant. In addition, the relative expression was normalized to the housekeeping gene GAPDH (relative quantification), with at least three sample concentrations used for each gene in both untreated cell lines.

[4] = system: GFAP; assay: as above; assay type: cell-based, human; settings: 24 h, relative to non-treated control
Experimental: as §1, §2, §3

[5] = system: NES; assay: as above; assay type: cell-based, human
Experimental: as §1, §2, §3

[6] = system: TUBA1A; assay: as above; assay type: cell-based, human
Experimental: as §1, §2, §3

[7] = means ± SD, p-nitrophenyl phosphate 15 mM
[8] = U-87MG, 0.1 µM CCP, 24 h, relative to non-treated control
[9] = U-87MG, 1 µM CCP, 24 h, relative to non-treated control
[10] = U-87MG, 10 µM CCP, 24 h, relative to non-treated control

T1 sequence (P62139 whole entry, canonical isoform): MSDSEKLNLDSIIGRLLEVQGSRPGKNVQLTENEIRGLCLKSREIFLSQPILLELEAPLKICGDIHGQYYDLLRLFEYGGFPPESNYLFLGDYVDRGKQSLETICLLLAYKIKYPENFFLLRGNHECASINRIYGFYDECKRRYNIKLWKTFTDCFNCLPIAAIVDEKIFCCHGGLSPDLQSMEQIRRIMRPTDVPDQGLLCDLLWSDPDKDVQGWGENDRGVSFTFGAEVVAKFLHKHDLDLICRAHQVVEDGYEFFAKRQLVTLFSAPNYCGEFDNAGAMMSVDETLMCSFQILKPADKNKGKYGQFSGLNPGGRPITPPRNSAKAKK

Row | Structure (SMILES) | IC50 [1, 7] [µM] | metabolic activity vs control ([2]; NHAs, up to 10 µM, 24 h) | Changes in gene expression of ACTB ([3]; 0.1 µM CCP) | Changes in gene expression of ACTB ([3]; 1 µM CCP) | Changes in gene expression of ACTB ([3]; 10 µM CCP) | Changes in gene expression of GFAP ([4]; 0.1 µM CCP) | Changes in gene expression of GFAP ([4]; 1 µM CCP) | Changes in gene expression of GFAP ([4]; 10 µM CCP) | Changes in gene expression of NES [5, 8] | Changes in gene expression of NES [5, 9] | Changes in gene expression of NES [5, 10] | Changes in gene expression of TUBA1A [6, 8] | Changes in gene expression of TUBA1A [6, 9] | Changes in gene expression of TUBA1A [6, 10] | IC50 [1] [µM] | metabolic activity vs control [2] | cytotoxicity ([2]; 10 µM, read-out: cell viability lower than the control) [%] | Changes in gene expression of NES [5] | Changes in gene expression of TUBA1A [6]
1 | CC[C@H](C)[C@@H]1NC(=O)[C@H](NC(=O)N[C@@H](CCCNC(=N)N)C(=O)O)CCCCNC(=O)[C@H](Cc2ccccc2)NC(=O)[C@H](C)N(C)C(=O)[C@H](CCc2ccc(O)cc2)NC1=O [anabaenopeptin F] ({Arg-CO}-[dK]I[hTyr][NMeA]F; lactam 1-C) | 28.2 ± 3.4 | no significant changes from the control | 0.935 ± 0.118 | 1.084 ± 0.138 | 1.046 ± 0.130 | 1.002 ± 0.087 | 1.096 ± 0.211 | 1.191 ± 0.435 | 1.040 ± 0.105 | 1.081 ± 0.056 | 0.886 ± 0.037 | 1.016 ± 0.098 | 1.023 ± 0.160 | 1.354 ± 0.126 |  |  |  |  | 
2 | CC(C)[C@@H]1NC(=O)[C@H](NC(=O)N[C@@H](CCCNC(=N)N)C(=O)O)CCCCNC(=O)[C@H](Cc2ccccc2)NC(=O)[C@H](C)N(C)C(=O)[C@H](CCc2ccc(O)cc2)NC1=O [anabaenopeptin B] ({Arg-CO}-[dK]V[hTyr][NMeA]F; lactam 1-C) | 9.5 ± 0.9 | no significant changes from the control | 0.998 ± 0.070 | 1.039 ± 0.070 | 1.122 ± 0.033 | 1.088 ± 0.390 |  | 1.175 ± 0.148 | 0.948 ± 0.143 | 0.992 ± 0.085 | 0.931 ± 0.054 | 1.131 ± 0.031 | 1.098 ± 0.192 | 1.429 ± 0.068 |  |  |  |  | 
3 | CC[C@H](C)[C@@H]1NC(=O)[C@H](Cc2ccc(OC)cc2)N(C)C(=O)[C@H]([C@@H](C)O)N2C(=O)[C@H](CC[C@H]2O)NC(=O)[C@H](CC(C)C)NC(=O)[C@@H](NC(=O)[C@H](CCC(N)=O)NC(=O)[C@H](CCc2ccc(O)cc2)NC(=O)[C@@H](O)CO)[C@@H](C)OC1=O | 132 ± 87.5 | no significant changes from the control | 1.015 ± 0.057 | 1.051 ± 0.185 | 1.147 ± 0.105 | 1.107 ± 0.214 | 1.283 ± 0.185 | 1.016 ± 0.046 | 1.003 ± 0.164 | 1.069 ± 0.105 | 1.240 ± 0.041 | 1.124 ± 0.050 | 1.094 ± 0.172 | 1.171 ± 0.049 |  |  |  |  | 
4 | C=C1C(=O)N[C@H](C)C(=O)N[C@@H](CC(C)C)C(=O)N[C@@H](C(=O)O)[C@H](C)C(=O)N[C@@H](CCCNC(=N)N)C(=O)N[C@@H](/C=C/C(C)=C/[C@H](C)[C@H](Cc2ccccc2)OC)[C@H](C)C(=O)N[C@@H](C(=O)O)CCC(=O)N1C [MC-LR, Microcystin-LR, reference compound] (R[Adda][d(γGlu)][NMeDha][dA]L[dAsp(3S-Me)]-OH; lactam N-7) |  |  |  |  |  |  |  |  |  |  |  |  |  |  | 0.005 ± 0.0016 | significantly decreased | ~20 | 1.030 ± 0.105 and 0.877 ± 0.148 | 1.031 ± 0.064 and 0.983 ± 0.099
